Measured values reported in patent publication US20130267680A1, “TOTAL CHEMICAL SYNTHESIS OF UBIQUITIN, UBIQUITIN MUTANTS AND DERIVATIVES THEREOF” (Stichting Het Nederlands kankerinstituut, priority 2010, published 2013).

Key:
[1] = system: HAUSP/USP7; assay: Binding of HAUSP/USP7 to ubiquitin-VME; conditions: Ub-VME 2 μM, USP7 1 μM, 60 min at 30° C.
Experimental: Both Ub derivatives are routinely used to measure activity of deubiquitinating enzymes (DUBs). […] The structural integrity of synthetic UbAMC and UBRh110Gly, both prepared in accordance with the method of the present invention, was tested using the following assays.
Binding of HAUSP/USP7 to ubiquitin-VME Assay buffer: 20 mM HEPES pH7.5 • 150 mM NaCl • 2 μM ZnCl2 • 10 mM MgCl2 • 2 mM DTT
Reaction mixtures were incubated for 60 min at 30° C.
Load 10 μL on gel (complete sample)
Target sequence in this assay (Q93009 206-1102): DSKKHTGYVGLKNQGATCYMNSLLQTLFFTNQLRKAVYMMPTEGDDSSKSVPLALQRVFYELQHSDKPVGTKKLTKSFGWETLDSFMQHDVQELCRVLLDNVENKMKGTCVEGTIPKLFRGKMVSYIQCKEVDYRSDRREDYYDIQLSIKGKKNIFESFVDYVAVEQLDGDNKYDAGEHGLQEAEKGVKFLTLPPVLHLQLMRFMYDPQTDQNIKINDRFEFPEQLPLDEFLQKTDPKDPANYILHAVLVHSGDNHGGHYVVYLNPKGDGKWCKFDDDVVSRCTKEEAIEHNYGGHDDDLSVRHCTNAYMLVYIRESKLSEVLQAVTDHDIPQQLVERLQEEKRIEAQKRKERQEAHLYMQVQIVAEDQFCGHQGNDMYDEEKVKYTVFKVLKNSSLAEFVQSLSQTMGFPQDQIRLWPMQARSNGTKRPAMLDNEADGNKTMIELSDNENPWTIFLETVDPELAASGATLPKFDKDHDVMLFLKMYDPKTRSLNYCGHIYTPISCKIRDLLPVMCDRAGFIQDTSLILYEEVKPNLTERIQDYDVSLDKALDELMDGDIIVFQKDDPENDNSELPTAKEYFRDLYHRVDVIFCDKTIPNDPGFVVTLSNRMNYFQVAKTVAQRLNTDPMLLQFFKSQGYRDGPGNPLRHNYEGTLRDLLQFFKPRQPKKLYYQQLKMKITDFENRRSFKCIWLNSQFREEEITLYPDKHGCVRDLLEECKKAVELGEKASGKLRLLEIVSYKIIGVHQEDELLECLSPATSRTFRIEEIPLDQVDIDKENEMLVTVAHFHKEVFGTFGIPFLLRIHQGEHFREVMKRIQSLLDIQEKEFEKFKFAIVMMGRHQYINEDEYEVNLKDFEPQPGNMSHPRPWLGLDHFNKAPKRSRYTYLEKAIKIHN

[2] = biological target: T1, UCH-L3 (Homo sapiens, UniProt P15374); assay: Ub-AMC/Ub-Rh110-Gly DUB assay with UCH-L3; format: biochemical; conditions: 1 nM enzyme, substrate 0.06-15 μM, 25° C., 30 min
T1 construct: made in house; host or cells: Escherichia coli
T1 sequence (P15374 1-230): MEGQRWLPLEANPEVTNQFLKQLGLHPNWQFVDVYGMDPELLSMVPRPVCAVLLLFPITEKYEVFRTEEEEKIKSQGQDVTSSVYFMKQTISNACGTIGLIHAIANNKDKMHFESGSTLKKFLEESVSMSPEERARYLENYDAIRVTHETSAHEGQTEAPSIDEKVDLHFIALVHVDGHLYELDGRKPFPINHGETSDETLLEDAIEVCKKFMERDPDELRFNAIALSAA
Experimental: (§1) FIG. 5: Hydrolysis of fluorogenic Ub derivatives by the deubiquitinating enzymes HAUSP/USP7 and UCH-L3. All assays contained 1 nM of enzyme, substrate concentration was varied.
Assay 2. Synthetic Ub-AMC was treated with UCH-L3.
(§2) Assay 3: Ub-Rh110-Gly was treated with HAUSP/USP7 and UCH-L3.
UCH-L3 in pRSET vector was obtained from Dr. Keith Wilkinson. UCH-L3 was expressed in Escherichia coli and purified as described in: C. N. Larsen, J. S. Price, K. D. Wilkinson, K. D. Biochemistry 1996, 35, 6735-6744.
(§3) assay buffer: 50 mM HEPES pH 7.5 • 100 mM NaCl • 1 mM EDTA • 0.05% Tween20 • 10 mM DTT • Reaction mixtures were incubated for 30 min at 25° C., measured every 5 minutes • 30 μL reactions • Proteins used: Ub-AMC (Commercial) • Ub-AMC (Synthetic) • Ub-Rh110-Gly (Synthetic) • USP7 full length • UCH-L3 All assays contained 1 nM DUB and the following concentrations of Ub:
DUB activity on commercial (Sigma) and synthetic ubiquitin with a C-terminal fluorescent group, 7-amino-4-methylcoumarin (Ub-AMC) were performed at 25° C. in buffer containing 50 mM Hepes pH 7.5, 100 mM NaCl, 1 mM EDTA, 0.05% (w/v) Tween20, 10 mM DTT. The concentrations Ubiquitin-AMC and DUB are specified in the figures. […] Kinetic data was collected in intervals of 5 min using a Fluostar Optima fluorescence plate reader (BMG Labtechnologies) at excitation and emission wavelengths of 355 nm and 460 nm, respectively for Ub-AMC. […]

[3] = system: HAUSP/USP7; assay: Ub-AMC/Ub-Rh110-Gly DUB assay with HAUSP/USP7; format: biochemical; conditions: 1 nM enzyme
Experimental: as §1
Target sequence in this assay (Q93009 whole entry): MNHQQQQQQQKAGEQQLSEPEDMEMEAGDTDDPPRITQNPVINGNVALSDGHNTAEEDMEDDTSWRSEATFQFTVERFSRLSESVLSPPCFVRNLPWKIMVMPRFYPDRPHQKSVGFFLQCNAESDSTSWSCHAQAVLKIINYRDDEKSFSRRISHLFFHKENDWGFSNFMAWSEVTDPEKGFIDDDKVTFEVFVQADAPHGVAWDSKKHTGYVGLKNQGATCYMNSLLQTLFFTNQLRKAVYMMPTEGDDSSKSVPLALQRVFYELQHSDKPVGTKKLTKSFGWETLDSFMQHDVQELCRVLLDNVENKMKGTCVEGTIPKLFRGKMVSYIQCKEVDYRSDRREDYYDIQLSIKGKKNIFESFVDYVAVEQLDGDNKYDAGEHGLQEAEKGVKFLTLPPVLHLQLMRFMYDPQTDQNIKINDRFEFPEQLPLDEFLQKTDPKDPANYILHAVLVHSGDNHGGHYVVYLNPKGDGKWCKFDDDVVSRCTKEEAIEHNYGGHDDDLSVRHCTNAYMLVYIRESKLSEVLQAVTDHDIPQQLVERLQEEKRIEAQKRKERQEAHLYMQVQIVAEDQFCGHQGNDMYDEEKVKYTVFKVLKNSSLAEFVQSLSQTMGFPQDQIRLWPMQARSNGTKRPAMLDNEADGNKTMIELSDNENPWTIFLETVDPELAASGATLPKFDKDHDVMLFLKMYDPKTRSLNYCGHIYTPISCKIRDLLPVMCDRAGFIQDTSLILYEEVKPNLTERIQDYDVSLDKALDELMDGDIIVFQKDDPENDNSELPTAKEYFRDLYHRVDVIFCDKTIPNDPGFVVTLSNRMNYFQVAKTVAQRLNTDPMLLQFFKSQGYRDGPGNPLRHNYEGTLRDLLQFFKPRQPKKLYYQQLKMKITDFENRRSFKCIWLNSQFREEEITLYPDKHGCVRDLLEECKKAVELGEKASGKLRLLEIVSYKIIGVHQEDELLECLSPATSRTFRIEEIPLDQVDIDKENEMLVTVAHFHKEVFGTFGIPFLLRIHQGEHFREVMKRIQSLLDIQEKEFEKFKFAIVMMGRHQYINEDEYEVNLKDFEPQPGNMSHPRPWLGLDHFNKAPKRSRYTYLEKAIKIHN
Assay 1: Commercial and synthetic Ub-AMC, prepared according to the present method are treated side by side with HAUSP/USP7 and compared.
as §2
Usp7(206-1102) was expressed in E. coli from a synthetic construct and purified as described: (a) Shanmugham et al. J. Am. Chem. Soc. 2010, 132, 8834-8835; (b) Fernandez-Montalvan et al. Febs J. 2007, 274, […].
as §3
DUB activity on commercial (Sigma) and synthetic ubiquitin with a C-terminal fluorescent group, 7-amino-4-methylcoumarin (Ub-AMC) were performed at 25° C. in buffer containing 50 mM Hepes pH 7.5, 100 mM NaCl, 1 mM EDTA, 0.05% (w/v) Tween20, 10 mM DTT. The concentrations Ubiquitin-AMC and DUB are specified in the figures. Assays were performed in “Non binding surface flat bottom low flange” black 384-well plates (Corning) in 30 μl reactions. Kinetic data was collected in intervals of 5 min using a Fluostar Optima fluorescence plate reader (BMG Labtechnologies) at excitation and emission wavelengths of 355 nm and 460 nm, respectively for Ub-AMC. Experimental data was processed using Prism 4.03 (GraphPad Software, Inc.).

Substance | reaction of active-site targeted probe with HAUSP/USP7 [1] | hydrolysis / turnover by UCH-L3 (recognition as substrate) [2] | hydrolysis / turnover by UCH-L3 (recognition as substrate) ([2]; listed as synthetic Ub-AMC) | hydrolysis / turnover by HAUSP/USP7 (recognition as substrate) ([3]; substrate 0.06-15 μM, 25° C., 30 min) | Michaelis-Menten kinetics comparison with USP7 ([3]; substrate concentration varied, commercial versus synthetic UbAMC (FIG. 5C)) | Km values with HAUSP/USP7 ([3]; substrate concentration varied, synthetic versus commercial UbAMC)
UbVME: active site directed probe Ub vinylmethyl ester which covalently modifies DUBs | reacted swiftly as expected |  |  |  |  | 
synthetic UbAMC: synthetic ubiquitin with a C-terminal fluorescent group, 7-amino-4-methylcoumarin; fluorogenic assay reagent |  | efficient turnover | hydrolyzed and thus recognized as a substrate | efficient turnover | identical kinetics | comparable Km values
